Consider one compound from US12337005B2, “Methods of treating thrombosis” (UNIVERSITY OF IOWA RESEARCH FOUNDATION, priority 2020, dated 2025).

The target of series [1] is T1, PKM2 dimers (Mus musculus, UniProt P52480).
T1 construct: PKM2 dimer and tetramer expression in platelets pre-treated with vehicle or ML265; endogenous in cells; host or cells: mouse platelets
As to the kind of experiment: Native Western blot of PKM2 dimer and tetramer in stimulated mouse platelets. The series is classed as cell-based. As to conditions: mouse platelets stimulated with convulxin or thrombin. The method, then:
Mouse platelets were prepared. Blood from anesthetized mice was drawn from the retro-orbital plexus and collected in 1.5 mL polypropylene tubes containing 300 μL of enoxaparin (0.3 mg/mL; Sanofi-Aventis, US LLC). The blood was centrifuged at 100 g for 5 minutes, and the platelet-rich plasma (PRP) was collected in a fresh tube. To prevent platelet activation, PRP was incubated with PGI2 (2 μg/mL) at 37° C. for 5 minutes. PRP was further centrifuged at 600 g for 5 minutes. The obtained pellets were suspended in 1 mL modified Tyrode-N-2-hydroxyethylpiperazine-N′-2-ethane sulfonic acid (HEPES) buffer (137 mM NaCl, 0.3 mM Na2HPO4, 2 mM KCl, 12 mM NaHCO3, 5 mM N-2-hydroxyethylpiperazine-N′-2-ethane sulfonic acid, 5 mM glucose, 0.35% bovine serum albumin, pH 7.2). The washing step was repeated twice with Tyrode's to remove PGI2, and platelets were fluorescently labeled with calcein green (wherever required), AM (2.5 μg/mL; Molecular Probes) for 10 minutes at 37° C.
Platelet proteins were separated on 4-20% SDS-PAGE (sodium dodecyl sulfate-polyacrylamide gel electrophoresis) gradient gels and electrophoretic transferred to PVDF (polyvinylidene fluoride) membrane by using Bio-Rad western blotting system. For PKM2 dimer and tetramer study 6% native gels are used. […] Blots were developed using enhanced chemiluminescence and quantified using Image J software from NIH (Bethesda, MD, USA).

The test system of series [2] is human platelets. As to the kind of experiment: Glucose uptake assay, human platelets. The series is classed as cell-based. As to conditions: human platelets stimulated with convulxin or thrombin; ML265 pre-treated (50 and 100 μM). Here is the method: Glucose uptake was determined in activated versus non-activated platelets using 10 mM ^14C-2-deoxy-glucose. Washed platelets (2×10^8/mL) treated with vehicle (DMSO) or ML265 (50 and 100 μM) were incubated in 1× Tyrode buffer and stimulated with convulxin or thrombin for 10 minutes, placed on ice and then centrifuged at 4000 rpm for 5 minutes. The pellets were washed with cold 1×PBS and solubilized in 1N NAOH. Radioactive counts were determined using a Perkin Elmer TriCarb 2800TR liquid scintillation counter.

The test system of series [3] is human platelets. As to the kind of experiment: In vitro platelet aggregation, human platelet-rich plasma. The series is classed as cell-based. The settings on record: convulxin, collagen, TRAP and ADP, ML265 50 and 100 μM. The method, then: (§1) Platelet rich plasma (PRP) or washed platelets (2×10^8/ml) treated with vehicle (DMSO) or ML265 (50 and 100 μM) were stirred (1200 rpm) at 37° C. for 2 min in a whole blood/optical lumi-aggregometer (Chrono-log; model 700-2) before the addition of agonists (convulxin, collagen, thrombin, PAR4, TRAP (PAR1 agonist) or adenosine diphosphate [ADP]). Aggregation was measured as percent change in light transmission, where 100% refers to transmittance through the blank sample (PRP/Buffer). Platelet dense granule secretion was determined by measuring the release of ATP using luciferin-luciferase reagent. To examine the effect of ML265 on ATP secretion, washed platelets were pretreated with vehicle (DMSO) or ML265 (50 and 100 μM) for 10 minutes before stimulation with various agonists. ATP release was performed in a lumi-aggregometer (Chrono-log; model 700-2) at 37° C.

For series [4], the system named is human platelets. As to the kind of experiment: P-selectin expression (α-granule secretion), human platelets. The series is classed as cell-based. As to conditions: stimulus-activated human platelets pretreated with ML265. Here is the method:
Platelets (1×10^8 cells in 100 μl) were pre-incubated for 10 min either in presence or absence of ML265 (50 and 100 μM) then stimulated by convulxin or TRAP without stirring. Following this, platelets were labeled with PE-labeled anti-CD61 antibody and FITC conjugated anti-CD62P antibody. The platelet samples were incubated for 30 min in the dark at room temperature and analyzed on the flow cytometer (FACS Calibur, Becton Dickinson). An amorphous region (gate) was drawn to differentiate the platelets from the noise and multi-platelet particles. After compensation for FITC and PE, CD61-positive 10,000 events were collected for each sample.

Series [5] deals with human platelets. As to the kind of experiment: ATP secretion from dense granules, human platelets. As to conditions: stimulus-activated human platelets pretreated with ML265. The series is classed as cell-based. Here is the method:
as §1

The subject of series [6] is human platelets. Briefly: Clot retraction, human platelet-rich plasma. The series is classed as cell-based. The settings on record: thrombin stimulation, ML265 50 and 100 μM, dose-dependent. The method, then: (§2) To measure thrombin-stimulated fibrin clot retraction PRP was treated with ML265 (50 and 100 μM) or vehicle control (DMSO) for 10 minutes. Tyrode buffer was added to test tubes, along with red blood cells, to allow visualization of the clot. This was followed by the addition of PRP. Clot formation was initiated by adding thrombin (final concentration 0.25 U/ml) to the test tubes. Photographs were taken every 15 minutes and the assay was terminated after 60 minutes at which time the clot in the vehicle-treated samples were seen to have retracted completely. Clot area was analyzed using Image J software from NIH (Bethesda, MD, USA).

In series [7] the test system is murine platelets. As to the kind of experiment: Clot retraction, mouse platelet-rich plasma. The series is classed as cell-based. The settings on record: thrombin 0.25 U/ml, ML265 50 and 100 μM. Here is the method:
as §2

In series [8] the test system is PI3 kinase-mediated Akt/GSK3β signaling. As to the kind of experiment: Western blot of Akt/GSK3β phosphorylation, mouse platelets. The series is classed as cell-based. The settings on record: murine platelets, convulxin or thrombin mediated, ML265 50 and 100 μM. Here is the method: Platelet proteins were separated on 4-20% SDS-PAGE (sodium dodecyl sulfate-polyacrylamide gel electrophoresis) gradient gels and electrophoretic transferred to PVDF (polyvinylidene fluoride) membrane by using Bio-Rad western blotting system. For PKM2 dimer and tetramer study 6% native gels are used. Membranes were blocked with 5% BSA or skimmed milk in 10 mM Tris-HCl, 150 mM NaCl, pH 8.0 (TBS) containing 0.05% Tween-20 for one hour at room temperature. Blots were incubated for overnight with primary antibody, followed by horseradish peroxidase-labeled secondary antibody for one hour. Blots were developed using enhanced chemiluminescence and quantified using Image J software from NIH (Bethesda, MD, USA).
A general note: Immunoblotting shows a protein as a band on a membrane.

Series [9] deals with platelets from obese mice. Briefly: Platelet aggregation, platelets from obese mice. The series is classed as cell-based, mouse. As to conditions: collagen (1 μg/mL) and thrombin (0.02 U/mL).
Description: FIGS. 16A-16D. ML265 inhibits platelet aggregation and arterial thrombosis in pre-existing comorbid condition of obesity. Wild-type (C57BL6/J) mice fed a chow and high-fat diet (Cat #TD.06414, Envigo, 60% Kcal from fat) for 4 months. (A) Blood glucose levels (B) Blood glucose levels during the insulin tolerance test. Statistics (A & B): Two-way ANOVA with Tukey's multiple comparisons test (*P<0.05, **P<0.01, ***P<0.001, ****P<0.0001; n=10 mice/group). (C) Platelet rich plasma or washed platelets from obese mice were pretreated with vehicle or ML265 and stimulated with agonists including collagen (1 μg/mL) and thrombin (0.02 U/mL). The results are represented as percent change light transmission after subtracting the blank (platelet poor plasma/Tyrode's buffer). […]
as §1, with “To examine the effect of ML265 on ATP secretion, washed platelets were pretreated with vehicle (DMSO) or ML265 (50 and 100 μM) for 10 minutes before stimulation with various agonists. ATP release was performed in a lumi-aggregometer (Chrono-log; model 700-2) at 37° C.” left out

For series [10] the following is noted: cited from earlier work.

T1 sequence (P52480 2-531 limits assumed): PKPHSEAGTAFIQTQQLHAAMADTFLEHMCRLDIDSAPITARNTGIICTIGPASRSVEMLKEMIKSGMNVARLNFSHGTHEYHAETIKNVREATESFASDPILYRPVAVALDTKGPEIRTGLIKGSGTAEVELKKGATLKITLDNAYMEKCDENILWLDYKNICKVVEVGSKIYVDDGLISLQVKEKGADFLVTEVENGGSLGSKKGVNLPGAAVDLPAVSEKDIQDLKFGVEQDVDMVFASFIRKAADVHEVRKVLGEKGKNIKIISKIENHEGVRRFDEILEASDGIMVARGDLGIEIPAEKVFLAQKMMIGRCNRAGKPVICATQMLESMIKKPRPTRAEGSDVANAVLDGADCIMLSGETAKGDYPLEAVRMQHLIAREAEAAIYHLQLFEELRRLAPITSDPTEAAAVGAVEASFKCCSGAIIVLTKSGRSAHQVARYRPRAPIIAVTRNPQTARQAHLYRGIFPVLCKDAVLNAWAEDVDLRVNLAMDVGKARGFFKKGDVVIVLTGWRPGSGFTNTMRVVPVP

On to `Cn1c2cc([S+](C)[O-])sc2c2cnn(Cc3cccc(N)c3)c(=O)c21` (centres unmarked) [ML265, 6-[(3-aminophenyl)methyl]-4,6-dihydro-4-methyl-2-(methylsulfinyl)-5H-thieno[2′,3′:4,5]pyrrolo[2,3-d]pyridazine-5-one], for which the PKM2 dimer formation entry in [1] is recorded as “limited”. Further, the glucose uptake result in series [2] is “significantly decreased”. The stimulus-dependent platelet aggregation result in series [3] is reported as “reduced”. For the same compound, the “α-granule secretion (P-selectin exposure)” value in series [4] is reported as “significant decrease”. The “dense-granule secretion (ATP release)” value in [5] is reported as “significant decrease”. For the same compound, the clot retraction result in series [6] is “significantly inhibited”. Also, the clot retraction entry in [7] was “significant decrease”. In [8], the Akt phosphorylation result is recorded as “attenuated” and the GSK3β phosphorylation entry is on record as “attenuated”. Also, the “platelet aggregation in pre-existing comorbid condition of obesity” value in [9] is “inhibited”. The half-life result in series [10] is “short”.
